Data published in patent publication US7767854B2, “N-substituted phenylacetamide derivative and pharmaceutical composition containing the same” (Dainippon Sumitomo Pharma Co., Ltd., priority 2005, dated 2010).
Entries after “also recorded” stand apart in the source; their conditions may differ.

Key:
[1] = system: Slc: Hartley male guinea-pigs; test: Skin sensitization test (Adjuvant and Patch Test, allergenic potency); assay type: in vivo, guinea-pig; details: 1% solution patches, FCA pre-treatment, observed 24 and 48 hours after initiation
Method: Experiment 3. Skin Sensitization Test (Evaluation of Allergenic Potency)
The purpose of the present experiment is to investigate if each administered compound of the invention may induce allergic contact dermatitis. In detail, the test was carried out using Freund's complete adjuvant (FCA) according to the Adjuvant and Patch Test [Sato, et al., Contact Dermatitis, 7, 225-237 (1981)], which is described in “Description of Guideline on Nonclinical Studies of Drugs (Iyakuhin Hirinshou-shiken Guideline Kaisetsu), Chapter 8, P.72-76, Skin sensitization test” [edited by the Ministry of Health and Welfare, Pharmaceutical Affairs Bureau, Yakuji-Nippou-sha (1997)]. Slc: Hartley male guinea-pigs were used for the test. As a test compound, each the compound of the invention and DNCB (1-chloro-2,4-dinitrobenzene) as a positive control drug were dissolved in 70% ethanol/water solution and were administered to the animals. The 70% ethanol/water solution was used as vehicle solvent (reference).
In detail, after FCA emulsion was intradermally administered around the shaved back part of the guinea-pig as a pre-treatment, each patch containing 1% test compound solution or reference (solvent) solution was closedly attached once a day for consecutive 3 days in total (Primary Sensitization). On 7th day after the Primary Sensitization, 10% sodium lauryl sulfate ointment was openly applied at the same part for 24 hours, and then each patch containing 1% test compound solution or reference (solvent) solution was closedly attached again for 48 hours (Second Sensitization). 14 days after the Second Sensitization treatment, each test compound (maximum concentration: 1%) was applied for 24 hours using patch in the same manner (initiation). 24 and 48 hours after the application, the reaction (erythema, edema) on the applied skin part was observed and was scored (0-3) based on the criteria of Magnusson and Kligman [J. Invest. Dermatol., 52, 268-276 (1969)], and then the degree of skin sensitization induced by each of compound was evaluated.

[2] = system: male Std: Wistar rats; test: Pain test by plantar thermal stimuli (plantar test); assay type: in vivo; details: Rattus norvegicus, 4 h, 50 μl of 0.03% (W/V) solution i.pl. into right hind-paw; 4 hours after administration; cut-off 25 seconds; read-out: % MPE (percent maximum possible effect, withdrawal latency)
Method: Experiment 1: Pain Test by Plantar Thermal Stimuli (Plantar Test)
In the present experiment, the analgesic effect of the compounds of the invention was evaluated by the measurements of withdrawal latency to noxious thermal stimuli, according to the methods of Hargreaves, et al., [Pain, 32, 77-88 (1988)] and Field, et al., [J. Pharmacol. Exp. Ther., 282, 1242-1246 (1997)].
In detail, the experiment was carried out using male Std: Wistar rats (4 rats/group; body weight, 170-220 g) and a plantar test device (Model 7370, Ugo Basile) with infrared beam as a heat source. The rat was put into an experimental cage that is an acrylic box whose bottom is made of glass and was habituated therein. Then, the infrared beam was radiated to the plantar surface of right hind-paw thereof through the floor glass, and the withdrawal latency was measured every 5 minutes, 3 times. The intension of the infrared beam was adjusted so that the pre-drug administration latency was about 10 seconds. The cut-off time was set at 25 seconds in order to prevent a paw burn. The average of the latencies was calculated, and then it was defined as the value of the pre-drug administration latency of the test compound.
Next day, 50 μl of each solution of the test compounds [the compounds of the invention, the compounds of the comparative Examples and capsaicin (Sigma, U.S.A.)] or 50 μl of vehicle solvent (reference) was given to a right hind-paw of the rat by intraplantar injection (i. pl.) using a micro-syringe. The test compound was dissolved in a saline solution containing 10% Tween 80 (Sigma, U.S.A) and 10% ethanol to give a 0.03% (W/V) solution. The saline solution containing 10% Tween 80 and 10% ethanol was used as reference. Four hours after i.pl. administration of each the test compound or the reference to the rats, the experiment mentioned above was carried out, and then the post-drug administration latency was measured. The analgesic effects thereof were calculated with the following formula, which was known as a percent maximum possible effect (% MPE). % MPE=[(the value of post-drug latency−the value of pre-drug latency)/(25*−the value of pre-drug latency)]×100 *: cut-off time

[3] = system: female CBA/JN mice; test: Skin sensitization test (Local Lymph Node Assay with BrdU); assay type: in vivo, mouse; details: 1 and 3% solutions in DMF on both auricles, 3 days
Method: Experiment 4: Skin Sensitization Test (Local Lymph Node Assay)
The purpose of the present experiment is to investigate if each administered compound of the invention can induce allergic contact dermatitis. In detail, the skin sensitization effect of the compounds of the invention was examined using BrdU (bromodeoxyuridine) by LLNA (Local Lymph Node Assay).
In more detail, the test was carried out according to the method by Suda, A. et al. (Local lymph node assay with non-radioisotope alternative endpoints. J. Toxicol. Sci., 27(3):205-218, 2002). Namely, the compounds of the invention were dissolved in DMF (N,N-dimethylformamide) to prepare 1 and 3% solutions, which were applied to both auricles of female CBA/JN mice aged 9 weeks for consecutive 3 days (1st day to 3rd day)(25 μl/one-side ear, once a day)
As positive control drugs, DNCB (dinitrochlorobenzene, a potently sensitizing drug) and HCA (α-hexylcinnamaldehyde, a weakly sensitizing drug) were used. After the final application was finished (on 3rd day), ALZET Osmotic Pump containing 100 μl of 200 mg/mL BrdU (releasing rate: 0.5 μl/hour) was implanted into the ventral skin under pentobarbital anesthesia, and BrdU was exposed sustainedly. On 9th day from starting day to apply the compounds of the invention, the animals were euthanized by cervical dislocation, and parotid lymph nodes of both their ears were taken out. The nodes were weighed and homogenized in PBS to prepare a single cell suspension which was measured by a blood test device: ADVIA (Bayer) to count the number of the cells. Next, the cells were immunofluorescently stained with FITC-labeled anti-BrdU antibody using a BrdU Flow Kit (BD Biosciences), which were measured and analyzed using a flow cytometer: FACS Calibur (Becton Dickinson) to give BrdU-positive cell percentage. And then, the BrdU-positive cell percentage was multiplied by the number of the node cells to give the number of the BrdU-positive cells. Additionally, on each parameter, the average value for the test compound group was divided by the average value for the reference (solvent) group to give a stimulation Index (SI). We judged that the compound had skin sensitization activity when the SI of BrdU-positive cell number was 2 or more, in principle.

[4] = Analgesic effect of prior-art compounds (background statement)
[5] = cited from earlier work
[6] = system: male Std:ddY mice; test: Study for irritancy (eye-wiping test); assay type: in vivo, mouse
Method: Experiment 2: Study for Irritancy (Eye-Wiping Test)
In this experiment, we examined the irritancy of the compounds of the invention. The experiment was carried out according to Jancso, et al., [Acta. Physiol. Acad. Sci. Hung., 19, 113-131 (1961)] and Szallasi, et al., [Brit. J. Pharmacol., 119, 283-290 (1996)]. In more detail, the compounds of the invention were dissolved in a physiological saline solution containing 5% Tween 80 and 5% ethanol to prepare each 2 different concentrations (2 concentrations: 10 and 30 μg/ml). One drop of each the solution was dropped into an eye of male Std:ddY mice (5 […]/group; body weight, 20-30 g). The protective wiping behaviors with its front paws were counted for every one minute from 0 to 5 minutes after the administration. Then, the average counts in each one minute were calculated, and the maximum value among the averages was defined as the representative value. Using the saline solution containing […] and 5% ethanol as a vehicle solvent, the test mentioned above was also carried out.

| Compound | skin sensitization (erythema, edema score) [1] | change in vivo at 300 µg/mL [2] | skin sensitization (SI of BrdU-positive cell number) [3] | further results |
| --- | --- | --- | --- | --- |
| CCCCC1=CCC(NC(=O)Cc2ccc(O)c(OC)c2)CC1 (single isomer, unassigned; (-)) [Example 44, (−)-N-(4-butyl-3-cyclohexenyl)-2-(4-hydroxy-3-methoxyphenyl)acetamide] | no skin sensitization |  |  |  |
| CCCCC[C@H]1CC[C@@H](NC(=O)Cc2ccc(O)c(OC)c2)CC1 [Example 8] |  | 88.4% | weak skin sensitization |  |
| CCCCC1CCC(NC(=O)Cc2ccc(O)c(OC)c2)CC1 (stereo not shown) [Example 2, N-(4-butylcyclohexyl)-2-(4-hydroxy-3-methoxyphenyl)acetamide] | no skin sensitization | 81.4% | weak skin sensitization |  |
| COc1cc(CC(=O)N[C@H]2CC[C@H](CCCC(C)C)CC2)ccc1O [Example 27] | no skin sensitization | 89.5% | weak skin sensitization |  |
| CCCCCO[C@H]1CC[C@H](NC(=O)Cc2ccc(O)c(OC)c2)CC1 [Example 36] |  | 50.5% | weak skin sensitization |  |
| CCCC=C1CCC(NC(=O)Cc2ccc(O)c(OC)c2)CC1 (single isomer, unassigned; (-)) [Example 46, (−)-N-(4-butylidenecyclohexyl)-2-(4-hydroxy-3-methoxyphenyl)acetamide] | no skin sensitization |  |  |  |
| COc1cc(CC(=O)NC2CCC(C)CC2)ccc1O (stereo not shown) |  |  |  | analgesic effect [4]: little analgesic effect |
| COc1cc(CC(=O)N[C@H]2CC[C@H](CCC(C)C)CC2)ccc1O [Example 26, 2-(4-hydroxy-3-methoxyphenyl)-N-[trans-4-(3-methylbutyl)cyclohexyl]acetamide] |  | 96.3% | weak skin sensitization |  |
| CCCC=C1CCC(NC(=O)Cc2ccc(O)c(OC)c2)CC1 (single isomer, unassigned; (+)) [Example 45, (+)-N-(4-butylidenecyclohexyl)-2-(4-hydroxy-3-methoxyphenyl)acetamide] | no skin sensitization | 73.9% |  |  |
| CCCCC1=CCC(NC(=O)Cc2ccc(O)c(OC)c2)CC1 (single isomer, unassigned; (+)) [Example 43, (+)-N-(4-butyl-3-cyclohexenyl)-2-(4-hydroxy-3-methoxyphenyl)acetamide] | no skin sensitization |  |  |  |
| C/C=C\[C@H]1CC[C@H](NC(=O)Cc2ccc(O)c(OC)c2)CC1 [Example 22] | no skin sensitization | 54.7% | weak skin sensitization |  |
| CCCCC1=CCC(NC(=O)Cc2ccc(O)c(OC)c2)CC1 (stereo not shown) [Example 1, N-(4-butyl-3-cyclohexenyl)-2-(4-hydroxy-3-methoxyphenyl)acetamide] | no skin sensitization | 69.9% | weak skin sensitization |  |
| COc1cc(CC(=O)NC2CCCCC2)ccc1O [drawing 3] |  |  |  | analgesic effect [4]: little analgesic effect; irritancy ([5]; Arzneim.-Forsch., 25, 1877 (1975)): a little lower irritancy than capsaicin; stimulatory effect and desensitization ([5]; Arzneim.-Forsch., 26, 33 (1976)): strong stimulatory; also recorded: weak desensitization |
| CC/C=C\[C@H]1CC[C@H](NC(=O)Cc2ccc(O)c(OC)c2)CC1 [Example 16] | no skin sensitization | 94.1% | weak skin sensitization |  |
| COc1cc(CC(=O)N[C@H]2CC[C@H](CC=C(C)C)CC2)ccc1O [Example 42, 2-(4-hydroxy-3-methoxyphenyl)-N-[trans-4-(3-methyl-2-butenyl)cyclohexyl]acetamide] |  | 85% | weak skin sensitization |  |
| CCCC=C1CCC(NC(=O)Cc2ccc(O)c(OC)c2)CC1 (stereo not shown) [Example 10, N-(4-butylidenecyclohexyl)-2-(4-hydroxy-3-methoxyphenyl)acetamide] |  | 89.4% | weak skin sensitization |  |
| COc1cc(CNC(=O)CCCC/C=C/C(C)C)ccc1O [Capsaicin, (E)-8-methyl-N-vanillyl-6-nonenamide] |  | 39.2% |  | Representative value of counts of protective wiping behaviors (max. counts, counts/min) ([6]; 10 μg/ml, one drop into eye, 0 to 5 minutes): 20.0 counts/min; irritancy (protective wiping behaviors, in words) ([6]; capsaicin 10 μg/ml, Example compounds up to 30 μg/ml): frequent protective wiping behaviors |
